Reference: patent US12370166B2, “Pentadecanoylcarnitine for treatment of conditions related to the quality of aging and longevity” (EPITRACKER, INC., priority 2021, dated 2025)

Tests used:
BT cell system = assay: Human primary cell phenotypic profiling, BT cell system (asthma, oncology, autoimmunity, allergy); type: cell-based; conditions: 6.7 μM stated for pentadecanoylcarnitine
Description: Methods for this human primary cell phenotypic profiling study were those previously described (Venn-Watson, S., Lumpkin, R., Dennis, E. A. Efficacy of dietary odd-chain saturated fatty acid pentadecanoic acid parallels broad associated health benefits in humans: could it be essential? Sci Rep 10:8161 (2020)). Significant activities of pentadecanoylcarnitine were those that were equal to or greater than 0.1|log 10| at 6.7 μM. Biomarkers with significant changes caused by pentadecanoylcarnitine were compared with results from the same study using pentadecanoic acid (C15:0).

Dopamine receptor D1 = Dopamine receptor D1 (Homo sapiens, UniProt P21728); assay: Receptor-based pharmacological activity, antagonist; type: biochemical; conditions: for IC50: read-out: RC50 (IC50)
Chain of Dopamine receptor D1 (P21728 whole entry, species assumed): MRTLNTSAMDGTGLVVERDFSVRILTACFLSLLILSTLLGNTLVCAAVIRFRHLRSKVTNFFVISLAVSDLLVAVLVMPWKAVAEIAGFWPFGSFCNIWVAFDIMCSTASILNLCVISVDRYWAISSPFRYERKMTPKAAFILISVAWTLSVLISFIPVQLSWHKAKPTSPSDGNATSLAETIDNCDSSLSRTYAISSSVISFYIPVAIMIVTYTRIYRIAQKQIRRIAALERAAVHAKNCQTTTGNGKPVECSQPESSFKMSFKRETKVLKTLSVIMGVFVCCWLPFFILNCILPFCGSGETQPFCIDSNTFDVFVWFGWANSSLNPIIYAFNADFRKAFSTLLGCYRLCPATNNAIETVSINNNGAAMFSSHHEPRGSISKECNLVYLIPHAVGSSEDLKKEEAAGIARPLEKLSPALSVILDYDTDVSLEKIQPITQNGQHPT
Description: (§1) Methods for this study have been previously described (Venn-Watson, S., Lumpkin, R., Dennis, E. A. Efficacy of dietary odd-chain saturated fatty acid pentadecanoic acid parallels broad associated health benefits in humans: could it be essential? Sci Rep 10:8161 (2020)). Significant activities of pentadecanoylcarnitine were those tagged as having maximum pharmacological activities that were greater than or equal to 70% that of the internal control between the concentrations of 1 to 20 μM. Significant pharmacological activities caused by pentadecanoylcarnitine were compared with results from the same assays using pentadecanoic acid (C15:0).

Histamine H2 receptor = Histamine H2 receptor (Homo sapiens, UniProt P25021); assay: as above; type: biochemical; conditions: for IC50: read-out: RC50 (IC50)
Chain of Histamine H2 receptor (P25021 whole entry): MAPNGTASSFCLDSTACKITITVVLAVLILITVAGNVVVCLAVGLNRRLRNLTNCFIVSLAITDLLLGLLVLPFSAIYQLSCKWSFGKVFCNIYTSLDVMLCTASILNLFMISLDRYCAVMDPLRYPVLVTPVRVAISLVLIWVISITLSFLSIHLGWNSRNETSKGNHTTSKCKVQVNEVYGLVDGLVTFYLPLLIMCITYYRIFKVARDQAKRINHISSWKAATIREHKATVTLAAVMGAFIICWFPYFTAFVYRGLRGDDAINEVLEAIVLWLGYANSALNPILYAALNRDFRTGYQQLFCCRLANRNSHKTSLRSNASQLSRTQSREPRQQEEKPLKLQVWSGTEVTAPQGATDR
Description: as §1

[1] = target: T1, Cholinergic receptor muscarinic 1 (Homo sapiens, UniProt P11229); assay: as above; type: biochemical; conditions: for IC50: read-out: RC50 (IC50)
T1 sequence (P11229 1-460): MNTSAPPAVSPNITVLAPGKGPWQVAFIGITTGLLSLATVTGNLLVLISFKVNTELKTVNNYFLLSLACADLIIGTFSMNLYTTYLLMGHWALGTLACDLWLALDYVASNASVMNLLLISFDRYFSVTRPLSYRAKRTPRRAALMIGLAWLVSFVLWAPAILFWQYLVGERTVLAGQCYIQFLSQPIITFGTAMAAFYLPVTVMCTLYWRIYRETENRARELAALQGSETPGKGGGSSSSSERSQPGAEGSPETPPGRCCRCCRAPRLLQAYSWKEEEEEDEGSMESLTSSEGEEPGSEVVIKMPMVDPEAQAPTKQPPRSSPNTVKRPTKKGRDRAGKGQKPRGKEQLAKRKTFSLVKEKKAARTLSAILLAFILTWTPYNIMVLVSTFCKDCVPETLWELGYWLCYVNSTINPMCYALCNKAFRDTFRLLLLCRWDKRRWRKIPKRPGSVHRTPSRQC
Description: as §1

Histamine H1 receptor = Histamine H1 receptor (Homo sapiens, UniProt P35367); assay: as above; type: biochemical; conditions: for IC50: read-out: RC50 (IC50)
Chain of Histamine H1 receptor (P35367 whole entry): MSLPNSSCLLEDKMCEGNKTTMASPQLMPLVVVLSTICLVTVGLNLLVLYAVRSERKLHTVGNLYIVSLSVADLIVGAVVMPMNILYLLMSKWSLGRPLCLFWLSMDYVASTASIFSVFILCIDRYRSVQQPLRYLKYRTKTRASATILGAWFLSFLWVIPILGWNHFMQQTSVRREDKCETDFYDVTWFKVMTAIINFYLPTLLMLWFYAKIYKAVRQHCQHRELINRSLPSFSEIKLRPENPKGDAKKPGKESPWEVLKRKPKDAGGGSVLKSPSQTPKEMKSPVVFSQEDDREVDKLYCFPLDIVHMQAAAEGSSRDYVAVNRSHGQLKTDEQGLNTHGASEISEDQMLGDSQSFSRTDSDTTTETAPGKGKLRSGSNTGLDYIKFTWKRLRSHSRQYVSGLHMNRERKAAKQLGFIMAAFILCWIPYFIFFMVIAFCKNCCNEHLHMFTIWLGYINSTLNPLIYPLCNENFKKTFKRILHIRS
Description: as §1

α-2A adrenergic receptor = target: T2, α-2A adrenergic receptor (Homo sapiens, UniProt P08913); assay: Receptor-based pharmacological activity, agonist; type: biochemical; conditions: for EC50: read-out: RC50 (EC50)
T2 sequence (P08913 1-465): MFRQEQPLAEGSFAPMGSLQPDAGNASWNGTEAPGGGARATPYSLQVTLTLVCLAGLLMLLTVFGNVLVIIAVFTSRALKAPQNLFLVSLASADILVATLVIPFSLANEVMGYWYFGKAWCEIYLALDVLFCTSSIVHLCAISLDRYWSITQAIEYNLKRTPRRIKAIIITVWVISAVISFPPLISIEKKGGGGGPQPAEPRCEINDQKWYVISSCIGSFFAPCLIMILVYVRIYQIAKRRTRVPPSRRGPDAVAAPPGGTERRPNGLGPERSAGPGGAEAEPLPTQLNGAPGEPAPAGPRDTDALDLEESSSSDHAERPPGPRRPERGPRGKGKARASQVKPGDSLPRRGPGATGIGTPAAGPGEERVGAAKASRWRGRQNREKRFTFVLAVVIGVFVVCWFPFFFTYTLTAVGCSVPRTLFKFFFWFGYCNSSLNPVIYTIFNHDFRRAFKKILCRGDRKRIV
Description: as §1

5-HT1B receptor = 5-HT1B receptor (Homo sapiens, UniProt P28222); assay: Receptor-based pharmacological activity, agonist; type: biochemical; conditions: for EC50: read-out: RC50 (EC50)
Chain of 5-HT1B receptor (P28222 whole entry): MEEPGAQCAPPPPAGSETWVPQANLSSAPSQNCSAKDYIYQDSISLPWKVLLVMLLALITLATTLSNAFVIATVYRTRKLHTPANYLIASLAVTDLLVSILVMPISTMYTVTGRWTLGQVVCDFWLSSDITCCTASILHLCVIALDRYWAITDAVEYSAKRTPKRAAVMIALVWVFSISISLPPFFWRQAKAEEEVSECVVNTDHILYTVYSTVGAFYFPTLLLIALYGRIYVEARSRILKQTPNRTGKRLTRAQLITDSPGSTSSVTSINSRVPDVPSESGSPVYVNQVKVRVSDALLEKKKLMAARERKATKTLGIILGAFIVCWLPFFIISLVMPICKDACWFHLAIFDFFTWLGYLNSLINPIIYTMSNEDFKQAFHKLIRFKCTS
Description: as §1

5-HT1A receptor = target: T3, 5-HT1A receptor (Homo sapiens, UniProt P08908); assay: Receptor-based pharmacological activity, agonist; type: biochemical; conditions: for EC50: read-out: RC50 (EC50)
T3 sequence (P08908 1-422): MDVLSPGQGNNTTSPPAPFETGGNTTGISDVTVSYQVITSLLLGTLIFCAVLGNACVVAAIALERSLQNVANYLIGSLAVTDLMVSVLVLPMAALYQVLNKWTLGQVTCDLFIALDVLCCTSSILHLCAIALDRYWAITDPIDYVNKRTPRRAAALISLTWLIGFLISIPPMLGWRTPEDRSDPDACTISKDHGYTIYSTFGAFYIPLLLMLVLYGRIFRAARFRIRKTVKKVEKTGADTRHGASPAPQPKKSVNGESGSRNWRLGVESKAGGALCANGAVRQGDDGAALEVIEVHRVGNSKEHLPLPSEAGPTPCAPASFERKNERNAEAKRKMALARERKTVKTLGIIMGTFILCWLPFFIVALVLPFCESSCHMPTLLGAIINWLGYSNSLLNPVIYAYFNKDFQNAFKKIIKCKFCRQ
Description: as §1

Cannabinoid receptor 1 = Cannabinoid receptor 1 (Homo sapiens, UniProt P21554); assay: Receptor-based pharmacological activity, agonist; type: biochemical; conditions: for EC50: read-out: RC50 (EC50); for Pharmacological activity at cannabinoid receptor 1: at approximately 1 to 20 μM
Chain of Cannabinoid receptor 1 (P21554 whole entry, species assumed): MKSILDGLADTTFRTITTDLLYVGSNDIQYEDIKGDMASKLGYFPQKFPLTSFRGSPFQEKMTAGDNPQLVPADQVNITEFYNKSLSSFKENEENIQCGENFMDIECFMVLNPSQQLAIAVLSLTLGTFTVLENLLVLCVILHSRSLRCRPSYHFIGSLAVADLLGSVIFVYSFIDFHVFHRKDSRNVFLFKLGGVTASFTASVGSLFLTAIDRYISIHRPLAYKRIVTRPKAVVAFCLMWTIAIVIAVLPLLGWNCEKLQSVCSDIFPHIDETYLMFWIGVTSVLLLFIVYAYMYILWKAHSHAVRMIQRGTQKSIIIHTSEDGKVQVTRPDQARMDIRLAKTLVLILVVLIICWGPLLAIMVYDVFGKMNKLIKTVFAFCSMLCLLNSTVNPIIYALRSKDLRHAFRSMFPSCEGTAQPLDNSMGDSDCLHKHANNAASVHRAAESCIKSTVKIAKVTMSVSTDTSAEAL
Description: as §1

Serotonin Transporter = Serotonin Transporter (Homo sapiens, UniProt P31645); assay: Transporter pharmacological activity, blocker; type: biochemical; conditions: for IC50: read-out: RC50 (IC50)
Chain of Serotonin Transporter (P31645 whole entry): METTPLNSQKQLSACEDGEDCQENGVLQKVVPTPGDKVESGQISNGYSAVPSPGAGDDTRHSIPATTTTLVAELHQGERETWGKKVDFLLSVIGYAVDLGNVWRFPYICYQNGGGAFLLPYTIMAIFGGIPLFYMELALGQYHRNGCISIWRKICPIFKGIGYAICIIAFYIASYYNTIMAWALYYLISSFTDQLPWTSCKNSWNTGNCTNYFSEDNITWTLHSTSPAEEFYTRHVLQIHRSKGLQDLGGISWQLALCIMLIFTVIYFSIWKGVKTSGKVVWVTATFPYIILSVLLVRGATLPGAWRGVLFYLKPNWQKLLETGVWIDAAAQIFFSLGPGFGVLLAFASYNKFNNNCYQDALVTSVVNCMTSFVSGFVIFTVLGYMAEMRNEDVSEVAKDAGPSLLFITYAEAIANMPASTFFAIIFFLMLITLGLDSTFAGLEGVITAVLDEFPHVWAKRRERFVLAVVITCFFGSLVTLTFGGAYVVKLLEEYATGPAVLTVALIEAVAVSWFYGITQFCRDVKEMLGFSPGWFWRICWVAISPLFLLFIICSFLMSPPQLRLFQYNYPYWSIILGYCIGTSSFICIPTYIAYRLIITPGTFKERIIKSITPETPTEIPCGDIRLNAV
Description: as §1

[2] = Antagonist, positive control SCH 39166
[3] = Antagonist, positive control Tiotidine
[4] = Antagonist, positive control Atropine
[5] = Antagonist, positive control Mepyramine
[6] = Agonist, positive control UK 14304
[7] = Agonist, positive control Serotonin hydrochloride, 1 to 20 μM
[8] = Agonist, positive control Serotonin hydrochloride
[9] = Agonist, positive control CP 55940
[10] = Blocker, positive control Clomipramine
[11] = Agonist, positive control Serotonin hydrochloride, 1 to 20 μM, read-out: Max Response (%) Compared to Positive Control
[12] = read-out: Max Response (%) Compared to Positive Control

CCCCCCCCCCCCCCC(=O)O[C@H](CC(=O)[O-])C[N+](C)(C)C [Pentadecanoylcarnitine, pentadecanoylcarnitine]
sIL-6 biomarker change (BT cell system): −0.13 log 10 | sTNF-α biomarker change (BT cell system): −0.10 log 10 | Max Response (%) Compared to Positive Control (Dopamine receptor D1; Antagonist, positive control SCH 39166, 1 to 20 μM): 105% | IC50 (Dopamine receptor D1; [2]): 6.2 µM | Pharmacological activity at dopamine receptor D1 (Dopamine receptor D1; at approximately 1 to 20 μM): antagonist | Max Response (%) Compared to Positive Control (Histamine H2 receptor; Antagonist, positive control Tiotidine, 1 to 20 μM): 98% | IC50 (Histamine H2 receptor; [3]): 6.1 µM | Pharmacological activity at histamine H2 receptor (Histamine H2 receptor; at approximately 1 to 20 μM): antagonist | Max Response (%) Compared to Positive Control ([1]; Antagonist, positive control Atropine, 1 to 20 μM): 77% | IC50 [1, 4]: 10.5 µM | Pharmacological activity at cholinergic receptor muscarinic 1 ([1]; at approximately 1 to 20 μM): antagonist | Max Response (%) Compared to Positive Control (Histamine H1 receptor; Antagonist, positive control Mepyramine, 1 to 20 μM): 71% | IC50 (Histamine H1 receptor; [5]): 10.9 µM | Pharmacological activity at histamine H1 receptor (Histamine H1 receptor; at approximately 1 to 20 μM): antagonist | Max Response (%) Compared to Positive Control (α-2A adrenergic receptor; Agonist, positive control UK 14304, 1 to 20 μM): 105% | EC50 (α-2A adrenergic receptor; [6]): 5.9 µM | Pharmacological activity at α-2A adrenergic receptor (α-2A adrenergic receptor; at approximately 1 to 20 μM): agonist | Max Response (%) Compared to Positive Control (5-HT1B receptor; [7]): 74% | EC50 (5-HT1B receptor; [8]): 9.3 µM | Pharmacological activity at 5-HT1B receptor (5-HT1B receptor; at approximately 1 to 20 μM): agonist | Max Response (%) Compared to Positive Control (5-HT1A receptor; [7]): 78% | EC50 (5-HT1A receptor; [8]): 9.6 µM | Pharmacological activity at 5-HT1A receptor (5-HT1A receptor; at approximately 1 to 20 μM): agonist | Max Response (%) Compared to Positive Control (Cannabinoid receptor 1; Agonist, positive control CP 55940, 1 to 20 μM): 111% | EC50 (Cannabinoid receptor 1; [9]): 3.7 µM | Pharmacological activity at cannabinoid receptor 1 (Cannabinoid receptor 1): agonist | Pharmacological activity at cannabinoid receptor 1 (Cannabinoid receptor 1; listed as pentadecenoyl carnitine): fully activates | Max Response (%) Compared to Positive Control (Serotonin Transporter; Blocker, positive control Clomipramine, 1 to 20 μM): 83% | IC50 (Serotonin Transporter; [10]): 7.4 µM | Pharmacological activity at SERT (Serotonin Transporter; at approximately 1 to 20 μM): blocker

CCCCCCCCCCCCCCC(=O)O [Pentadecanoic acid (C15:0), Pentadecanoic acid]
sIL-6 biomarker change (BT cell system): +0.12 log 10 | sTNF-α biomarker change (BT cell system): +0.14 log 10 | Emax (Dopamine receptor D1; Antagonist, positive control SCH 39166, 1 to 20 μM, read-out: Max Response (%) Compared to Positive Control): 4% | IC50 (Dopamine receptor D1; [2]): > 20 µM | Emax (Histamine H2 receptor; Antagonist, positive control Tiotidine, 1 to 20 μM, read-out: Max Response (%) Compared to Positive Control): 2% | IC50 (Histamine H2 receptor; [3]): > 20 µM | Emax ([1]; Antagonist, positive control Atropine, 1 to 20 μM, read-out: Max Response (%) Compared to Positive Control): 0% | IC50 [1, 4]: > 20 µM | Emax (Histamine H1 receptor; Antagonist, positive control Mepyramine, 1 to 20 μM, read-out: Max Response (%) Compared to Positive Control): 5% | IC50 (Histamine H1 receptor; [5]): > 20 µM | Emax (α-2A adrenergic receptor; Agonist, positive control UK 14304, 1 to 20 μM, read-out: Max Response (%) Compared to Positive Control): 22% | EC50 (α-2A adrenergic receptor; [6]): > 20 µM | Emax (5-HT1B receptor; [11]): 0% | EC50 (5-HT1B receptor; [8]): > 20 µM | Emax (5-HT1A receptor; [11]): 0% | EC50 (5-HT1A receptor; [8]): > 20 µM | EC50 (Cannabinoid receptor 1; [9]): > 20 µM | Emax (Cannabinoid receptor 1; [12]): 25% | IC50 (Serotonin Transporter; [10]): > 20 µM | Emax (Serotonin Transporter; [12]): 1%
